Holding throughout (type): cell-based
Test [1] has as its system Staphylocoocus aureus ATCC 6538. Nature of the test: Antimicrobial activity MIC/MBC test, Staphylocoocus aureus ATCC 6538. The conditions noted are these: read-out: MBC (minimum bactericidal concentration). Here is the method: (§1) The four reference strains were indications of the minimum inhibitory concentration (MIC) and minimum bactericidal concentration (MBC) tests conducted for two newly synthesized compounds of the new quaternary ammonium salts derivatives: 4-[2-(4-bromophenyl)-2-oxoethyl]tetrahydro[1,3]oxazolo[2,3-b][1,3]oxazol-4-ium bromide and 4-[2-(biphenyl-4-yl)-2-oxoethyl]tetrahydro[1,3]oxazolo[2,3-b][1,3]oxazol-4-ium bromide. The study was carried out on strains: Staphylocoocus aureus ATCC 6538, Escherichia coli ATCC 25922, Pseudomonas aeruginosa ATCC 6749, Candida albicans ATCC 10231,

The subject of test [2] is Escherichia coli ATCC 25922. In words: Antimicrobial activity MIC/MBC test, Escherichia coli ATCC 25922. The conditions noted are these: ATCC25922, read-out: MBC (minimum bactericidal concentration). The method, then:
as §1

Test [3] deals with Pseudomonas aeruginosa ATCC 6749. Nature of the test: Antimicrobial activity MIC/MBC test, Pseudomonas aeruginosa ATCC 6749. The conditions noted are these: for MBC: ATCC6749, read-out: MBC (minimum bactericidal concentration); for MIC: ATCC6749, read-out: MIC (minimum inhibitory concentration). Here is the method: as §1
Test [4] has as its system Candida albicans ATCC 10231. In words: Antimicrobial activity MIC/MBC test, Candida albicans ATCC 10231. The conditions noted are these: ATCC10231, read-out: MBC (minimum bactericidal concentration). Here is the method:
as §1

With `O=C(C[N+]12CCOC1OCC2)c1ccc(Br)cc1.[Br-]` (stereo not shown) [4-[2-(4-bromophenyl)-2-oxoethyl]tetrahydro[1,3]oxazolo[2,3-b][1,3]oxazol-4-ium bromide], the MBC in test [1] is 1.73 mg/mL; in test [2] it was 6.94 mg/mL; in test [3], 27.8 mg/mL; in test [4], 27.8 mg/mL. Besides, the MIC in test [3] is 27.8 mg/mL.

For `O=C(C[N+]12CCOC1OCC2)c1ccc(-c2ccccc2)cc1.[Br-]` (stereo not shown) [4-[2-(biphenyl-4-yl)-2-oxoethyl]tetrahydro[1,3]oxazolo[2,3-b][1,3]oxazol-4-ium bromide], the MBC came to 0.43 mg/mL in test [1], 3.47 mg/mL in test [2], 55.5 mg/mL in test [3] and 6.94 mg/mL in test [4]. Besides, the MIC in test [3] is 13.9 mg/mL.

Values taken from patent US9169267B2, “Quaternary ammonium salts, method for preparation and applications thereof” (Uniwersytet Medyczny IM. Karola Marcinkowskiego, priority 2012, dated 2015).
